From ChEMBL document CHEMBL1201862, “PubChem BioAssay data set” (2004)
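96-well plates; 48 h exposure; 5 concentrations. Endpoints by linear interpolation between flanking doses. Not reached: highest tested concentration assigned. GI50 = concentration required for 50% inhibition of growth.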 The source made the active and inactive calls. Rule as the data show it: active = GI50 up to about 1.1 µM and inactive = higher.

Key:
Assay in all cases: NCI tumour cell line growth inhibition, 48 h
[1] = test system: KM12
[2] = test system: NCI-H23
[3] = test system: CCRF-CEM
[4] = test system: SNB-19
[5] = test system: M14
[6] = test system: IGROV-1
[7] = test system: MDA-MB-231
[8] = test system: SNB-75
[9] = test system: UO-31
[10] = test system: SK-MEL-28
[11] = test system: MDA-N
[12] = test system: SK-MEL-5
[13] = test system: PC-3
[14] = test system: HCC 2998
[15] = test system: LOX IMVI
[16] = test system: HL-60
[17] = test system: SN12C
[18] = test system: NCI-H460
[19] = test system: ACHN
[20] = test system: DU-145
[21] = test system: SR
[22] = test system: HOP-62
[23] = test system: NCI-H522
[24] = test system: OVCAR-3
[25] = test system: HCT-15
[26] = test system: Hs-578T
[27] = test system: RXF 393
[28] = test system: T47D
[29] = test system: TK-10
[30] = test system: OVCAR-8
[31] = test system: SW-620
[32] = test system: HOP-92
[33] = test system: OVCAR-5
[34] = test system: Malme-3M
[35] = test system: MCF7
[36] = test system: BT-549
[37] = test system: A498
[38] = test system: UACC-257
[39] = test system: MDA-MB-435
[40] = test system: SF-268
[41] = test system: K562
[42] = test system: EKVX
[43] = test system: SK-MEL-2
[44] = test system: RPMI-8226
[45] = test system: CAKI-1
[46] = test system: A549
[47] = test system: NCI-H226
[48] = test system: U-251
[49] = test system: COLO 205
[50] = test system: NCI/ADR-RES
[51] = test system: SF-539
[52] = test system: SK-OV-3
[53] = test system: HT-29
[54] = test system: OVCAR-4
[55] = test system: UACC-62
[56] = test system: HCT-116
[57] = test system: 786-0
[58] = test system: SF-295
[59] = test system: MOLT-4

## O=c1cnn(C/C=C/CO)c(=O)[nH]1
[1]
  GI50: > 100 µM (inactive)
[2]
  GI50: > 100 µM (inactive)
[3]
  GI50: > 100 µM (inactive)
[4]
  GI50: > 100 µM (inactive)
[5]
  GI50: > 100 µM (inactive)
[6]
  GI50: > 100 µM (inactive)
[7]
  GI50: > 100 µM (inactive)
[8]
  GI50: > 100 µM (inactive)
[9]
  GI50: > 100 µM (inactive)
[10]
  GI50: > 100 µM (inactive)
[11]
  GI50: > 100 µM (inactive)
[12]
  GI50: > 100 µM (inactive)
[13]
  GI50: > 100 µM (inactive)
[14]
  GI50: > 100 µM (inactive)
[15]
  GI50: 28.3 µM (inactive)
[16]
  GI50: > 100 µM (inactive)
[17]
  GI50: > 100 µM (inactive)
[18]
  GI50: > 100 µM (inactive)
[19]
  GI50: > 100 µM (inactive)
[20]
  GI50: > 100 µM (inactive)
[21]
  GI50: > 100 µM (inactive)
[22]
  GI50: > 100 µM (inactive)
[23]
  GI50: > 100 µM (inactive)
[24]
  GI50: > 100 µM (inactive)
[25]
  GI50: > 100 µM
[26]
  GI50: > 100 µM (inactive)
[27]
  GI50: > 100 µM (inactive)
[28]
  GI50: > 100 µM (inactive)
[29]
  GI50: > 100 µM (inactive)
[30]
  GI50: > 100 µM (inactive)
[31]
  GI50: > 100 µM (inactive)
[32]
  GI50: > 100 µM (inactive)
[33]
  GI50: > 100 µM (inactive)
[34]
  GI50: > 100 µM (inactive)
[35]
  GI50: > 100 µM (inactive)
[36]
  GI50: > 100 µM (inactive)
[37]
  GI50: > 100 µM (inactive)
[38]
  GI50: > 100 µM (inactive)
[39]
  GI50: > 100 µM (inactive)
[40]
  GI50: > 100 µM (inactive)
[41]
  GI50: > 100 µM (inactive)
[42]
  GI50: > 100 µM (inactive)
[43]
  GI50: > 100 µM (inactive)
[44]
  GI50: > 100 µM (inactive)
[45]
  GI50: > 100 µM (inactive)
[46]
  GI50: > 100 µM (inactive)
[47]
  GI50: > 100 µM (inactive)
[48]
  GI50: > 100 µM (inactive)
[49]
  GI50: > 100 µM (inactive)
[50]
  GI50: > 100 µM (inactive)

## Cc1[nH]c2ccccc2c1/C=N/NC(=O)c1cccc(I)c1
[1]
  GI50: 16.3 µM (inactive)
[2]
  GI50: 19.1 µM (inactive)
[3]
  GI50: 26 µM (inactive)
[51]
  GI50: 18.8 µM (inactive)
[52]
  GI50: 32.2 µM (inactive)
[4]
  GI50: 29 µM (inactive)
[5]
  GI50: 15 µM (inactive)
[6]
  GI50: 17.7 µM (inactive)
[7]
  GI50: 16.7 µM (inactive)
[8]
  GI50: 22.4 µM (inactive)
[53]
  GI50: 15.7 µM (inactive)
[9]
  GI50: 20.7 µM (inactive)
[10]
  GI50: 22.7 µM (inactive)
[54]
  GI50: 16.1 µM (inactive)
[11]
  GI50: 22.1 µM (inactive)
[12]
  GI50: 15.7 µM (inactive)
[55]
  GI50: 17.8 µM (inactive)
[56]
  GI50: 22.9 µM (inactive)
[13]
  GI50: 23 µM (inactive)
[14]
  GI50: 18.6 µM (inactive)
[15]
  GI50: 15.7 µM (inactive)
[16]
  GI50: 26.9 µM (inactive)
[17]
  GI50: 30.2 µM (inactive)
[18]
  GI50: 17.1 µM (inactive)
[19]
  GI50: 26.8 µM (inactive)
[20]
  GI50: 27.9 µM (inactive)
[21]
  GI50: 17.9 µM (inactive)
[22]
  GI50: 17.6 µM (inactive)
[23]
  GI50: 24.3 µM (inactive)
[24]
  GI50: 20.7 µM (inactive)
[25]
  GI50: 23.7 µM
[57]
  GI50: 20.7 µM (inactive)
[26]
  GI50: 33.1 µM (inactive)
[27]
  GI50: 17.5 µM (inactive)
[28]
  GI50: 14.8 µM (inactive)
[29]
  GI50: 26.7 µM (inactive)
[30]
  GI50: 26.5 µM (inactive)
[31]
  GI50: 29 µM (inactive)
[32]
  GI50: 14.4 µM (inactive)
[33]
  GI50: 25.1 µM (inactive)
[34]
  GI50: 24.2 µM (inactive)
[35]
  GI50: 19.5 µM (inactive)
[36]
  GI50: 21.9 µM (inactive)
[37]
  GI50: 18.4 µM (inactive)
[58]
  GI50: 18.7 µM (inactive)
[38]
  GI50: 23.7 µM (inactive)
[39]
  GI50: 17.3 µM (inactive)
[40]
  GI50: 40.6 µM (inactive)
[59]
  GI50: 23.3 µM (inactive)
[41]
  GI50: 24.5 µM (inactive)
[42]
  GI50: 12.2 µM (inactive)
[43]
  GI50: 19.2 µM (inactive)
[44]
  GI50: 19.9 µM (inactive)
[45]
  GI50: 18.2 µM (inactive)
[46]
  GI50: 29.2 µM (inactive)
[48]
  GI50: 21.5 µM (inactive)
[49]
  GI50: 13.5 µM (inactive)
[50]
  GI50: 20.3 µM (inactive)

## CCOC(=O)C(CS)NC(=O)CCCCCCCC(=O)O (centres undefined)
[1]
  GI50: > 100 µM (inactive)
[2]
  GI50: > 100 µM (inactive)
[3]
  GI50: 41.5 µM (inactive)
[52]
  GI50: > 100 µM (inactive)
[4]
  GI50: > 100 µM (inactive)
[5]
  GI50: > 100 µM (inactive)
[6]
  GI50: > 100 µM (inactive)
[7]
  GI50: > 100 µM (inactive)
[8]
  GI50: 0.724 µM (active)
[53]
  GI50: > 100 µM (inactive)
[9]
  GI50: > 100 µM (inactive)
[10]
  GI50: > 100 µM (inactive)
[54]
  GI50: > 100 µM (inactive)
[11]
  GI50: > 100 µM (inactive)
[12]
  GI50: > 100 µM (inactive)
[55]
  GI50: > 100 µM (inactive)
[56]
  GI50: > 100 µM (inactive)
[13]
  GI50: > 100 µM (inactive)
[14]
  GI50: > 100 µM (inactive)
[15]
  GI50: > 100 µM (inactive)
[16]
  GI50: > 100 µM (inactive)
[17]
  GI50: > 100 µM (inactive)
[18]
  GI50: > 100 µM (inactive)
[19]
  GI50: 78.3 µM (inactive)
[20]
  GI50: > 100 µM (inactive)
[21]
  GI50: > 100 µM (inactive)
[22]
  GI50: > 100 µM (inactive)
[23]
  GI50: > 100 µM (inactive)
[24]
  GI50: > 100 µM (inactive)
[25]
  GI50: > 100 µM
[57]
  GI50: > 100 µM (inactive)
[26]
  GI50: > 100 µM (inactive)
[28]
  GI50: > 100 µM (inactive)
[29]
  GI50: > 100 µM (inactive)
[30]
  GI50: > 100 µM (inactive)
[31]
  GI50: > 100 µM (inactive)
[32]
  GI50: > 100 µM (inactive)
[33]
  GI50: > 100 µM (inactive)
[34]
  GI50: > 100 µM (inactive)
[35]
  GI50: > 100 µM (inactive)
[36]
  GI50: > 100 µM (inactive)
[37]
  GI50: > 100 µM (inactive)
[58]
  GI50: > 100 µM (inactive)
[38]
  GI50: > 100 µM (inactive)
[39]
  GI50: > 100 µM (inactive)
[59]
  GI50: > 100 µM (inactive)
[41]
  GI50: > 100 µM (inactive)
[42]
  GI50: > 100 µM (inactive)
[43]
  GI50: > 100 µM (inactive)
[44]
  GI50: > 100 µM (inactive)
[45]
  GI50: > 100 µM (inactive)
[46]
  GI50: > 100 µM (inactive)
[47]
  GI50: > 100 µM (inactive)
[48]
  GI50: > 100 µM (inactive)
[49]
  GI50: > 100 µM (inactive)
[50]
  GI50: > 100 µM (inactive)
